Holding throughout (format): cell-based, human
In experiment [1] the test system is p-ERK in AGS cells (KRAS^G12D mutation). Nature of the experiment: Cell p-ERK detection assay. To be noted: 3 h incubation, HTRF. As for the experimental part: AGS was purchased from ATCC; Cat. NO.: CRL-1739; F12K was purchased from Gibco; Cat. NO.: 21127-022; FBS was purchased from Gibco; Cat. NO.: 10099-141C; Trypsin (containing EDTA) was purchased from Gibco; Cat. NO.: 25200-072; DMSO was purchased from VWRAMRESCO; Cat. NO.: 0231-500ML; 96-well cell culture plate was purchased from Corning; Cat. NO.: 3599; An white background opaque 96-well plate was purchased from Cisbio; Cat. NO.: 66PL96025; Advance ERK phospho-T202/Y204 kit was purchased from Cisbio; Cat. NO.: 64AERPEH; Cell Counters were purchased from CHEMOMETEC; Model NO.: NC-200; microplate reader was purchased from PerkinElmer; Model NO.: Envison.
AGS is an endogenous human gastric adenocarcinoma cell line containing KRAS^G12D mutation, cultured in F12K+10% FBS medium. On the first day of the experiment, cells in the logarithmic growth phase were taken, digested with trypsin (containing EDTA), collected, and counted, and approximately 20,000 cells/well were inoculated in 96-well cell culture plates and cultured overnight in a 5% CO2 incubator. A 1000×3.16-fold gradient concentration stock of the compound was prepared using DMSO, diluted 200-fold into a 5× compound stock using the medium described above, and a 5× compound stock was added to each cell culture well the day after cell inoculating at a final concentration of 1× and a DMSO content of 0.1%. DMSO was used as an experimental control. After the compound was added and the incubation was continued for 3 h, the medium in the culture wells was removed, […] of cell lysis solution (from Advance ERK phospho-T202/Y204 kit, the same below) was added to each well, mixed well and incubated for 30 min, then […] of the mixed solution was transferred to a white background opaque 96-well plate, and another well was taken as a blank well with adding […] of cell lysis solution. After the transfer, […] of p-ERK HTRF antibody mixed solution (from Advance ERK phospho-T202/Y204 kit) was added to each well, after incubation for 4 h, HTRF fluorescence value (RLU) was read by a microplate reader, and p-ERK level inhibition ratio of the compound was calculated IR (%)=(RLU control-RLU compound)/(RLU control-RLU blank)×100%, compound concentration and corresponding cell p-ERK level inhibition ratio were fitted using Prism 8 four-parameter method, and IC50 value was calculated.
In general terms: TR-FRET usually uses a lanthanide donor and a delayed reading to cut background.

The test system of experiment [2] is AGS cells (KRAS^G12D mutation). Nature of the experiment: Cell proliferation inhibition assay (3D, CellTiter-Glo), AGS. To be noted: 3D cell model, 5 days. The text has this: (§1) AsPC-1 was purchased from ATCC; Cat. NO.: CRL-1682; AGS was purchased from ATCC; Cat. NO.: CRL-1739; RPMI1640 was purchased from Gibco; Cat. NO.: 11875-093 2235123; F12K was purchased from Gibco; Cat. NO.: 21127-022; FBS was purchased from Gibco; Cat. NO.: 10099-141C; Trypsin (containing EDTA) was purchased from Gibco; Cat. NO.: 25200-072; CellTiter Glo-3D was purchased from Progema; Cat. NO.: G9683; 384-well sphere plates were purchased from coming; Cat. NO.: 3830; White background opaque 384-well plates were purchased from coming; Cat. NO.: 3570; Cell Counters were purchased from CHEMOMETEC; Model NO.: NC-200; microplate reader was purchased from PerkinElmer; Model NO.: Envison;
(§2) AsPC-1 is an endogenous human pancreatic cancer cell containing KRAS^G12D mutation, which is cultured in RPMI-1640 medium containing 10% FBS; AGS human gastric cancer cell line containing KRAS^G12D mutation, cultured in F-12K medium containing 10% FBS. Cells in the logarithmic growth phase were taken, digested with trypsin (containing EDTA), harvested and counted, and inoculated with 800 AsPC-1 cells/well or 400 AGS cells/well, respectively, in 384-well sphere plates and cultured overnight at 5% C02 to establish a 3D cell model. A 3.16-fold gradient concentration stock solution of 1000× compound was prepared using DMSO, diluted 100-fold into a 10× compound stock solution using media, and a 10× compound stock solution was added to each cell culture well the day after cell inoculating at a final concentration of 1× with a DMSO content of 0.1%. DMSO was used as an experimental control (control) and culture medium as a blank control (blank). After the addition of compounds, the cells were cultured for 5 days. […] CellTiter-Glo working solution was added to each well, mixed well, and incubated for 30 min. After standing for 30 min at room temperature, 40 μl of the mixed solution was transferred to a white background opaque 384-well plate. Luminescence chemiluminescence value was read on a microplate reader, and the cell proliferation inhibition ratio was calculated, IR (%)=(RLU control-RLU compound)/(RLU control-RLU blank)×100%. XLFit four-parameter method was used to fit the gradient dilution concentration of compounds and the corresponding cell proliferation inhibition ratio, and the IC50 value was calculated. […] Results for exemplary of the example compounds are shown in Table 3 below. - indicates not detected.
In general terms: In ATP-based viability assays light output follows the ATP content of the culture.

Experiment [3] concerns AsPC-1 cells (KRAS^G12D mutation). Kind of experiment: Cell proliferation inhibition assay (3D, CellTiter-Glo), AsPC-1. To be noted: 3D cell model, 5 days.
Description: as §1, §2

The record followed here is US20240270758A1, “PYRIDINO-OR PYRIMIDO-CYCLIC COMPOUND, PREPARATION METHOD THEREFOR AND MEDICAL USE THEREOF” (Genfleet Therapeutics (Shanghai) Inc., priority 2021, published 2024).

As usually defined, the IC50 is the concentration that gives 50% inhibition. Higher therefore signals a need for much substance. Regarding `C#Cc1c(F)ccc2cc(O)cc(-c3ncc4c(N5C[C@H]6CC[C@@H](C5)N6)nc(OCC56CC(=C)CN5CC(=C)C6)nc4c3Cl)c12` [Example Z211, 4-(4-((1R,5S)-3,8-diazacyclo[3.2.1]octan-3-yl)-8-chloro-2-((2,6-dimethylenetetrahydro-1H-pyrrolizin-7a(5H)-yl)methoxy)pyrido[4,3-d]pyrimidin-7-yl)-5-ethynyl-6-fluoronaphthalen-2-ol], the IC50 is 5.47 nM in experiment [1], 4.8 nM in experiment [2] and 71.9 nM in experiment [3].

For `C#Cc1cccc2cc(O)cc(-c3ncc4c(N5C[C@H]6CC[C@@H](C5)N6)nc(OCC56CCCN5CC(=C(F)F)C6)nc4c3F)c12` (stereo partly drawn) [Example Z27, 4-(4-((1R,5S)-3,8-diazabicyclo[3.2.1]octan-3-yl)-2-((2-(difluoromethylene)tetrahydro-1H-pyrrolizine 7a(5H)-yl)methoxy)-8-fluoropyrido[4,3-d]pyrimidin-7-yl)-5-ethynylnaphthalen-2-ol], the IC50 in experiment [1] (Homo sapiens, AGS, 3 h) was determined as 1.1 nM; in experiment [2] (Homo sapiens, AGS, 120 h), 3.1 nM; in experiment [3] (Homo sapiens, ASPC1, 120 h) it was 6.9 nM.

For `C#Cc1cccc2cc(N)cc(-c3ncc4c(N5C[C@H]6CC[C@@H](C5)N6)nc(OCC56CC(=C)CN5CC(=C)C6)nc4c3F)c12` [Example Z214, 4-(4-((1R,5S)-3,8-diazabicyclo[3.2.1]octan-3-yl)-2-((2,6-dimethylenetetrahydro-1H-pyrrolizin-7a(5H)-yl)methoxy)-8-fluoropyrido[4,3-d]pyrimidin-7-yl)-5-ethynylnaphthalen-2-amine], the IC50 in experiment [1] was determined as 105 nM; in experiment [2], 106 nM; in experiment [3] it was 611 nM.

Consider `C#Cc1cccc2cc(O)cc(-c3ncc4c(N5C[C@H]6CC[C@@H](C5)N6)nc(OCC56CC(=C)CN5CC(=C)C6)nc4c3F)c12` [Example Z21], for which the IC50 in experiment [1] worked out at 0.6 nM; in experiment [2], 6.5 nM; in experiment [3] it was 14.7 nM.

Turning to `C#Cc1cccc2cc(O)cc(-c3ncc4c(N5C[C@H]6CC[C@@H](C5)N6)nc(OCC56CCCN5CCC6=C)nc4c3F)c12` (stereo partly drawn) [Example Z25, 4-(4-((1R,5S)-3,8-diazabicyclo[3.2.1]octan-3-yl)-8-fluoro-2-((1-methylenetetrahydro-1H-pyrrolizin-7a(5H)-yl)methoxy)pyrido[4,3-d]pyrimidin-7-yl)-5-ethynylnaphthalen-2-ol], the IC50 in experiment [1] (Homo sapiens, AGS, 3 h) was 6.84 nM; in experiment [2] (Homo sapiens, AGS, 120 h), 24.9 nM; in experiment [3] (Homo sapiens, ASPC1, 120 h), 70.7 nM.

In the case of `C#Cc1cccc2cc(O)cc(-c3ncc4c(N5C[C@H]6CC[C@@H](C5)N6)nc(OCC56CCC7(CC7)N5CC(=C)C6)nc4c3F)c12` (stereo partly drawn) [Example Z22, 4-(4-((1R,5S)-3,8-diazabicyclo[3.2.1]oct-3-yl)-8-fluoro-2-((6′-methylenetetrahydrospiro[cyclopropane-1,3′-pyrrolizin]-7a′(5′H)-yl)methoxy)pyrido[4,3-d]pyrimidin-7-yl)-5-ethynylnaphthalen-2-ol], the IC50 in experiment [1] (Homo sapiens, AGS, 3 h) stood at 2.41 nM; in experiment [2] (Homo sapiens, AGS, 120 h), 10.8 nM; in experiment [3] (Homo sapiens, ASPC1, 120 h), 75.4 nM.

On to `C#Cc1cccc2cc(O)cc(-c3ncc4c(N5C[C@H]6CC[C@@H](C5)N6)nc(OCC56CC(=C)CN5CC5(CC5)C6)nc4c3F)c12` (stereo partly drawn) [Example Z23, 4-(4-((1R,5S)-3,8-diazabicyclo[3.2.1]octan-3-yl)-8-fluoro-2-((6′-methylenedihydro-1′H,3′H-spiro[cyclopropane-1,2′-pyrrolizin]-7a′(5′H)-yl)methoxy)pyrido[4,3-d]pyrimidin-7-yl)-5-ethynylnaphthalen-2-ol], for which the IC50 in experiment [1] (Homo sapiens, AGS, 3 h) stood at 0.76 nM; in experiment [2] (Homo sapiens, AGS, 120 h), 4.7 nM; in experiment [3] (Homo sapiens, ASPC1, 120 h), 33.2 nM.

As to `C#Cc1cccc2cc(O)cc(-c3ccc4c(N5CC6CCC(C5)N6)nc(OCC56CCCN5CC(=C)C6)nc4c3F)c12` [Example Z99, 4-(4-(1R,5S)-3,8-diazabicyclo[3.2.1]octan-3-yl)-8-fluoro-2-((2-methylenetetrahydro-1H-pyrrolizin-7a(5H)-yl)methoxy)quinazolin-7-yl)-5-ethynylnaphthalen-2-ol], the figures for the IC50 in experiment [1], in experiment [2] and in experiment [3] were 2.9 nM, 5.2 nM and 36.6 nM, respectively.

For the molecule `C=C1CN2CCCC2(COc2nc(N3C[C@H]4CC[C@@H](C3)N4)c3cnc(-c4cc(O)cc5cccc(F)c45)c(F)c3n2)C1` (stereo partly drawn) [Example Z24, 4-(4-((1R,5S)-3,8-diazabicyclo[3.2.1]octan-3-yl)-8-fluoro-2-((2-methylenetetrahydro-1H-pyrrolizin-7a(5H)-yl)methoxy)pyrido[4,3-d]pyrimidin-7-yl)-5-fluoronaphthalen-2-ol], the IC50 is 3.59 nM in experiment [1] (Homo sapiens, AGS, 3 h); 3.3 nM in experiment [2] (Homo sapiens, AGS, 120 h); 56 nM in experiment [3] (Homo sapiens, ASPC1, 120 h).

Consider `C#Cc1cccc2cc(O)cc(-c3ncc4c(N5C[C@@H]6CC[C@@H](N6)[C@H]5C)nc(OCC56CC(C)CN5CC(C)C6)nc4c3F)c12` (stereo partly drawn) [Example Z207, 4-(2-((2,6-dimethyltetrahydro-1H-pyrrolizin-7a(5H)-yl)methoxy)-8-fluoro-4-((1R, 2R, 5S)-2-methyl-3,8-diazabicyclo[3.2.1]octan-3-yl)pyrido[4,3-d]pyrimidin-7-yl)-5-ethynylnaphthalen-2-ol], for which the IC50 in experiment [1] (Homo sapiens, AGS, 3 h) was 13.4 nM; in experiment [2] (Homo sapiens, AGS, 120 h), 32 nM; in experiment [3] (Homo sapiens, ASPC1, 120 h), 91.1 nM.

Consider `C#Cc1cccc2cc(N)cc(-c3ncc4c(N5C[C@H]6CC[C@@H](C5)N6)nc(OCC56CC(=C)CN5CC(=C)C6)nc4c3F)c12` [Example Z206, 4-(4-((1R,5S)-3,8-diazabicyclo[3.2.1]octan-3-yl)-2-((2,6-dimethylenetetrahydro-1H-pyrrolizin-7a(5H)-yl)methoxy)-8-fluoropyrido[4,3-d]pyrimidin-7-yl)-5-ethynylnaphthalen-2-amine], for which the values for the IC50 in experiment [1], in experiment [2] and in experiment [3] were 5.47 nM, 20.1 nM and 35.4 nM, respectively.

In experiment [1] (Homo sapiens, AGS, 3 h), `C#Cc1cccc2c(O)ccc(-c3ncc4c(N5C[C@H]6CC[C@@H](C5)N6)nc(OCC56CC(=C)CN5CC(=C)C6)nc4c3F)c12` [Example Z208, 4-(4-((1R,5S)-3,8-diazabicyclo[3.2.1]octan-3-yl)-2-((2,6-dimethylenetetrahydro-1H-pyrrolizin-7a(5H)-yl)methoxy)-8-fluoropyrido[4,3-d]pyrimidin-7-yl)-5-ethynylnaphthalen-1-ol] gave an IC50 of 9.04 nM.

In experiment [1] (Homo sapiens, AGS, 3 h), `C#Cc1cccc2nc(N)cc(-c3ncc4c(N5CC6CCC(C5)N6)nc(OCC56CC(=C)CN5CC(=C)C6)nc4c3F)c12` [Example Z201, 4-(4-(3,8-diazabicyclo[3.2.1]octan-3-yl)-2-((2,6-dimethylenetetrahydro-1H-pyrrolizin-7a(5H)-yl)methoxy)-8-fluoropyrido[4,3-d]pyrimidin-7-yl)-5-ethynylquinolin-2-amine] showed an IC50 of 238 nM.
